In BindingDB's records for doi:10.1126/science.abf1611 (Sichuan University, 2021):
Several values for one entry are separate records, joined by “and”; a condition that tells them apart may be missing. Equal values may be shown once.

Key:
[1] = molecular target: T1, Replicase polyprotein 1ab (Severe acute respiratory syndrome coronavirus 2, UniProt P0DTD1)
[2] = molecular target: T1, Replicase polyprotein 1ab; experiment: The enzymatic inhibition assay
Description: The enzymatic inhibition assay was carried out with a final concentration of 100 nM recombinant SARS-CoV-2 Mpro and 20 μM FRET substrate. […] The initial velocities were calculated from the first 1 min of each reaction curve. The IC50 values were calculated using a dose-response model in GraphPad Prism 8.0 software. All experiments were performed in triplicate, and the values are presented as mean ± standard deviation (SD).

[3] = molecular target: T1, Replicase polyprotein 1ab; experiment: scanning fluorimetry assay of HPAEpiC cells
Description: The differential scanning fluorimetry (DSF) assay was carried out on a CFX96 real-time PCR Detection System (Bio-Rad). […] The Mpro protein (final concentration: 2 μM) was pre-incubated with 40 μM of compounds for 30 min. […] The melt temperature (Tm) was calculated by using a Boltzmann model in GraphPad Prism 8.0 software. The thermal shift (ΔTm) was calculated using the equation ΔTm=Tm(compound)-Tm(DMSO). All experiments were performed in triplicate, and the values are presented as mean ± SD. HPAEpiC cells are used.

In the case of `CC1(C)[C@@H]2[C@H](C(=O)N[C@H](C=O)C[C@@H]3CCNC3=O)N(C(=O)COc3ccc4ccccc4c3)C[C@@H]21` [11b], the EC50 [1] is reported as 0.075 µM and the IC50 [2] is reported as 0.052 µM and 0.027 µM.

Work on `CC1(C)[C@@H]2[C@H](C(=O)N[C@H](C=O)C[C@@H]3CCNC3=O)N(C(=O)c3ccc4ccccc4c3)C[C@@H]21` [MI-01] yielded an IC50 [2] of 0.453 µM.

Work on `CC1(C)[C@@H]2[C@H](C(=O)N[C@H](C=O)C[C@@H]3CCNC3=O)N(C(=O)CCc3cccc(F)c3)C[C@@H]21` [MI-03] yielded an IC50 [2] of 0.017 µM.

Work on `CC1(C)[C@@H]2[C@H](C(=O)N[C@H](C=O)C[C@@H]3CCNC3=O)N(C(=O)COc3cc(F)cc(F)c3)C[C@@H]21` [MI-04] yielded an IC50 [2] of 0.019 µM.

Work on `CC1(C)[C@@H]2[C@H](C(=O)N[C@H](C=O)C[C@@H]3CCNC3=O)N(C(=O)COc3ccc(F)c(F)c3)C[C@@H]21` [MI-05] yielded an IC50 [2] of 0.013 µM.

`COc1ccc(OCC(=O)N2C[C@H]3[C@@H]([C@@H]2C(=O)N[C@H](C=O)C[C@@H]2CCNC2=O)C3(C)C)cc1OC` [MI-06] showed an IC50 [2] of 0.015 µM.

`CC1(C)[C@@H]2[C@H](C(=O)N[C@H](C=O)C[C@@H]3CCNC3=O)N(C(=O)COc3ccc(C(F)(F)F)cc3)C[C@@H]21` [MI-07] gave an IC50 [2] of 0.043 µM.

`COc1ccc(OCC(=O)N2C[C@H]3[C@@H]([C@@H]2C(=O)N[C@H](C=O)C[C@@H]2CCNC2=O)C3(C)C)cc1F` [MI-08] was tested, and the IC50 [2] was 0.037 µM.

`CC1(C)[C@@H]2[C@H](C(=O)N[C@H](C=O)C[C@@H]3CCNC3=O)N(C(=O)COc3ccc(Cl)c(Br)c3)C[C@@H]21` [MI-10] showed an IC50 [2] of 0.051 µM.

`CC1(C)[C@@H]2[C@H](C(=O)N[C@H](C=O)C[C@@H]3CCNC3=O)N(C(=O)COc3ccc(Br)cc3Cl)C[C@@H]21` [MI-11] gave an IC50 [2] of 0.013 µM.

In the case of `CC1(C)[C@@H]2[C@H](C(=O)N[C@H](C=O)C[C@@H]3CCNC3=O)N(C(=O)COc3ccc(Cl)cc3)C[C@@H]21` [MI-12], the EC50 [3] is reported as 0.0073 µM, the EC50 [1] is reported as 0.097 µM and the IC50 [2] is reported as 0.019 µM.

`CC1(C)[C@@H]2[C@H](C(=O)N[C@H](C=O)C[C@@H]3CCNC3=O)N(C(=O)COc3ccc(Cl)c(Cl)c3)C[C@@H]21` [MI-13] was tested, and the IC50 [2] was 0.012 µM.

`CC1(C)[C@@H]2[C@H](C(=O)N[C@H](C=O)C[C@@H]3CCNC3=O)N(C(=O)COc3ccc(Cl)cc3Cl)C[C@@H]21` [MI-14] showed an EC50 [3] of 0.0003 µM, an EC50 [1] of 0.085 µM and an IC50 [2] of 0.013 µM.

With `O=C[C@H](C[C@@H]1CCNC1=O)NC(=O)[C@H]1[C@@H]2CCC[C@H]2CN1C(=O)c1cccnc1` [MI-15] the IC50 [2] was 0.749 µM.

`O=C[C@H](C[C@@H]1CCNC1=O)NC(=O)[C@H]1[C@@H]2CCC[C@H]2CN1C(=O)c1cc2ccccc2[nH]1` [MI-16] gave an IC50 [2] of 0.153 µM.

Work on `O=C[C@H](C[C@@H]1CCNC1=O)NC(=O)[C@H]1[C@@H]2CCC[C@H]2CN1C(=O)c1cc2ccccn2n1` [MI-17] yielded an IC50 [2] of 0.299 µM.

`O=C[C@H](C[C@@H]1CCNC1=O)NC(=O)[C@H]1[C@@H]2CCC[C@H]2CN1C(=O)/C=C/c1ccccc1` [MI-18] was tested, and the IC50 [2] was 0.526 µM.

`COc1ccc(/C=C/C(=O)N2C[C@@H]3CCC[C@H]3[C@@H]2C(=O)N[C@H](C=O)C[C@@H]2CCNC2=O)c(OC)c1` [MI-19] showed an IC50 [2] of 0.196 µM.

`CNc1ccc(/C=C/C(=O)N2C[C@@H]3CCC[C@H]3[C@@H]2C(=O)N[C@H](C=O)C[C@@H]2CCNC2=O)cc1` [MI-20] gave an IC50 [2] of 0.375 µM.

Work on `O=C[C@H](C[C@@H]1CCNC1=O)NC(=O)[C@H]1[C@@H]2CCC[C@H]2CN1C(=O)CCc1ccc(F)c(F)c1` [MI-22] yielded an IC50 [2] of 0.017 µM.

Work on `CN(C)c1ccc(CCC(=O)N2C[C@@H]3CCC[C@H]3[C@@H]2C(=O)N[C@H](C=O)C[C@@H]2CCNC2=O)cc1` [MI-24] yielded an IC50 [2] of 0.378 µM.

`COc1ccc(OCC(=O)N2C[C@@H]3CCC[C@H]3[C@@H]2C(=O)N[C@H](C=O)C[C@@H]2CCNC2=O)cc1` [MI-25] was tested, and the IC50 [2] was 0.036 µM.

For `COc1ccc(OC(C)C(=O)N2C[C@@H]3CCC[C@H]3[C@@H]2C(=O)N[C@H](C=O)C[C@@H]2CCNC2=O)cc1` (stereo partly specified) [MI-26], the IC50 [2] was 0.069 µM.

In the case of `O=C[C@H](C[C@@H]1CCNC1=O)NC(=O)[C@H]1[C@@H]2CCC[C@H]2CN1C(=O)COc1ccc2c(c1)OCCO2` [MI-27], the IC50 [2] is reported as 0.094 µM.

In the case of `O=C[C@H](C[C@@H]1CCNC1=O)NC(=O)[C@H]1[C@@H]2CCC[C@H]2CN1C(=O)COc1ccc(Cl)cc1` [MI-28], the EC50 [3] is reported as 0.0022 µM and the EC50 [1] is reported as 0.042 µM.

Compound `O=C[C@H](C[C@@H]1CCNC1=O)NC(=O)[C@H]1[C@@H]2CCC[C@H]2CN1C(=O)COc1ccc(Cl)cc1F` [MI-29] has an IC50 [2] of 0.035 µM.

For `O=C[C@H](C[C@@H]1CCNC1=O)NC(=O)[C@H]1[C@@H]2CCC[C@H]2CN1C(=O)COc1ccc(Cl)c(Cl)c1` [MI-31], the EC50 [3] was 0.0004 µM, the EC50 [1] was 0.062 µM and the IC50 [2] was 0.03 µM.

With `Cc1cc(Cl)ccc1OCC(=O)N1C[C@@H]2CCC[C@H]2[C@@H]1C(=O)N[C@H](C=O)C[C@@H]1CCNC1=O` [MI-32] the IC50 [2] was 0.02 µM.
